# Like-named read-outs stand apart in the source and are kept apart here.
# Key:
# [1] = system: Human Small Cell Lung Cancer NCI-H82; assay: Cell proliferation experiment (Alarm blue), H82; format: cell-based
# Method in brief: (§1)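 Log-phase cells in 96-well plates were exposed 72 h to compound in a 5-fold dilution series, duplicate wells. Viability was measured by Alamar blue fluorescence, and IC50 was derived from a fit using minimum, maximum and slope.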
# Human Colon Cancer HT-29 = assay: Cell proliferation experiment (Alarm blue), HT-29; format: cell-based
# Method in brief: as §1
# [2] = system: Human Small Cell Lung Cancer H69; assay: Cell proliferation experiment (Alarm blue), H69; format: cell-based
# Method in brief: as §1
# [3] = system: human gastric carcinoma cells N87; assay: Cell proliferation experiment (Alarm blue), N87; format: cell-based
# Method in brief: as §1
# [4] = system: human small cell lung cancer NCI-H82 xenograft tumor; assay: In vivo efficacy in nude mouse xenograft tumor model of human small cell lung cancer NCI-H82; set-up: species or system BALB/c nude mice; conditions: nude mice
# Procedure: Transplanted tumor cell line: human small cell lung cancer cell NCI-H82, derived from the American Type Culture Collection Center (ATCC, cryopreserved in liquid nitrogen in the laboratory). Under 5% CO2 and 37° C. culture conditions, cells were routinely cultured in RPMI-1640 culture medium containing 10% fetal bovine serum; they were passaged according to cell growth, with a passage ratio of 1:2 to 1:5.
# Experimental animal: Female BALB/c nude mice (number: 65; age: 6-8 weeks) were purchased from Charles River and raised in the SPF animal room of Suzhou Shengsu New Pharmaceutical Development Co., Ltd. (3D Biooptima). The temperature is 20 to 25° C., and relative humidity is 40% to 70%, with bright light and dark light for 12 hours each; animals were free to drink and eat. After normal feeding for about 5 days, mice with good physical signs can be selected for this experiment after veterinary inspection. Before grouping, animals were identified at the base of tail using maker pens. After grouping, each animal was identified by ear clipping.
# Animal model preparation: NCI-H82 cells at logarithmic growth phase were collected, the cells were resuspended in 50% serum-free RPMI-1640 medium and 50% Matrigel after counting. The concentration of cells was adjusted to […] cells/mL. […] After inoculation, the animal status and tumor growth were regularly observed, the tumor diameter was measured using a electronic vernier caliper, the data were entered into Excel to calculate the tumor volume. […] After the start of experiment, the tumor diameter was measured twice a week, the tumor volume was calculated, and the animal weight was weighed and recorded at the same time. […]
# Preparation of UB-181322 sample: An appropriate amount of UB series sample was weighed and put it into a glass bottle; an appropriate volume of DMSO was added. […] The liquid was vortexed to mix evenly, with the proportions of DMSO, 30% Solutol aqueous solution and ultrapure water in the liquid being 5%, 20% and 75%, to obtain preparations with appropriate final concentrations, which are ready for use. […]
# [5] = system: Human Colon Cancer cells Colo205; assay: Cell proliferation experiment (Alarm blue), Colo205; format: cell-based
# Method in brief: as §1
# [6] = H82 cells, 72 h culture, read-out: Anti cell proliferative activity EC50, H82
# [7] = HT-29 cells, 72 h culture, read-out: Anti cell proliferative activity EC50, HT-29
# [8] = H69 cells, 72 h culture, read-out: Anti cell proliferative activity EC50, H69
# [9] = N87 cells, 72 h culture, read-out: Anti cell proliferative activity EC50, N87
# [10] = injection 23 mg/kg once every two days (FIG. 3B)
# [11] = Colo205 cells, 72 h culture, read-out: Anti cell proliferative activity EC50, Colo205
Compound,EC50 ([1]; 72 h) [nM],EC50 (Human Colon Cancer HT-29; 72 h) [nM],EC50 ([2]; 72 h) [nM],EC50 ([3]; 72 h) [nM],EC50 ([5]; 72 h) [nM],also measured
CC(C)[C@@H](NC(=O)CCOCCOCCOCCOCCOCCOCCOCCOCCN1C(=O)CC(SC[C@H](N)C(=O)N[C@H](Cc2ccccc2)C(=O)N[C@H]2CSSC[C@@H](C(=O)N[C@H](CO)[C@@H](C)O)NC(=O)[C@H]([C@@H](C)O)NC(=O)[C@H](CCCCN)NC(=O)[C@@H](Cc3c[nH]c4ccccc34)NC(=O)[C@H](Cc3ccccc3)NC2=O)C1=O)C(=O)N[C@@H](C)C(=O)Nc1ccc(COC(=O)N(CCC#Cc2ccc3c(c2)CN(C2CCC(=O)NC2=O)C3=O)[C@H]2CC[C@H](NC(=O)N3CCN(c4ccc(Nc5ncc(Cl)c(Nc6ccccc6C(N)=O)n5)cc4)CC3)CC2)cc1 (some centres unmarked) [UB-181322],–,–,–,–,–,"EC50 [1, 6]: 312 nM; EC50 (Human Colon Cancer HT-29; [7]): > 1000 nM; EC50 [2, 8]: > 1000 nM; EC50 [3, 9]: 470 nM; tumor inhibitory effect compared with blank group ([4]; injection 23 mg/kg once every two days (FIG. 3A)): shows the effect of inhibiting tumor growth; mouse body weight during the administration period [4, 10]: does not change significantly; toxicity [4, 10]: low; EC50 [5, 11]: 384 nM"
CC[C@@H]1C(=O)N(C)c2cnc(Nc3ccc(-c4cn([C@H]5CC[C@@H](N(CCOCCC#Cc6cccc7c6CN(C6CCC(=O)NC6=O)C7=O)C(=O)OCc6ccc(NC(=O)[C@H](CC(N)=O)NC(=O)[C@H](C)NC(=O)[C@H](C)NC(=O)CCCCCN7C(=O)CC(SC[C@H](N)C(=O)N[C@@H](Cc8ccccc8)C(=O)N[C@H]8CSSC[C@@H](C(=O)N[C@H](CO)[C@@H](C)O)NC(=O)[C@H]([C@@H](C)O)NC(=O)[C@H](CCCCN)NC(=O)[C@@H](Cc9c[nH]c%10ccccc9%10)NC(=O)[C@H](Cc9ccccc9)NC8=O)C7=O)cc6)CC5)nn4)cc3OC)nc2N1C1CCCC1 (some centres unmarked) [UB-181334],989,> 1000,955,927,286,–
NC(=O)c1ccccc1Nc1nc(Nc2ccc(N3CCN(C(=O)N[C@H]4CC[C@@H](NC5CN(CC#Cc6ccc7c(c6)CN(C6CCC(=O)NC6=O)C7=O)C5)CC4)CC3)cc2)ncc1Cl (some centres unmarked) [UB-181270],–,–,–,–,–,"EC50 ([1]; Homo sapiens, NCI-H82, 72 h, H82 cells, 72 h culture, read-out: Anti cell proliferative activity EC50, H82): 147 nM; EC50 (Human Colon Cancer HT-29; Homo sapiens, HT-29 cells, 72 h culture, read-out: Anti cell proliferative activity EC50, HT-29): 951 nM; EC50 ([2]; Homo sapiens, NCI-H69, H69 cells, 72 h culture, read-out: Anti cell proliferative activity EC50, H69): 454 nM; EC50 ([3]; Homo sapiens, 72 h, N87 cells, 72 h culture, read-out: Anti cell proliferative activity EC50, N87): 258 nM; EC50 ([5]; Homo sapiens, COLO 205, 72 h, Colo205 cells, 72 h culture, read-out: Anti cell proliferative activity EC50, Colo205): 218 nM"
CC[C@@H]1C(=O)N(C)c2cnc(Nc3ccc(-c4cn([C@H]5CC[C@@H](N(CCOCCC#Cc6cccc7c6CN(C6CCC(=O)NC6=O)C7=O)C(=O)OCc6ccc(NC(=O)[C@H](CC(N)=O)NC(=O)[C@H](C)NC(=O)[C@H](C)NC(=O)CCCCCN7C(=O)CC(SC[C@H](NC(=O)[C@H](CC(=O)O)NC(=O)[C@H](CC(=O)O)NC(=O)[C@H](CCCNC(=N)N)NC(=O)[C@H](CC(=O)O)NC(=O)CCC(NC(=O)c8ccc(NCc9cnc%10nc(N)[nH]c(=O)c%10n9)cc8)C(=O)O)C(=O)O)C7=O)cc6)CC5)nn4)cc3OC)nc2N1C1CCCC1 (some centres unmarked) [UB-181337],183,233,79.3,175,33.1,–
CC(C)c1cc(-c2nnc(O)n2-c2ccc3c(ccn3CCC3CCN(C(=O)NCCOCCOCCOCCOCCOCCOCCOCCOCCC(=O)N[C@@H](CSSCCOC(=O)N(CCC#Cc4ccc5c(c4)CN(C4CCC(=O)NC4=O)C5=O)C4CCC(NC(=O)N5CCN(c6ccc(Nc7ncc(Cl)c(Nc8ccccc8C(N)=O)n7)cc6)CC5)CC4)C(=O)N[C@H](Cc4ccccc4)C(=O)N[C@H]4CSSC[C@@H](C(=O)N[C@H](CO)[C@@H](C)O)NC(=O)[C@H]([C@@H](C)O)NC(=O)[C@H](CCCCN)NC(=O)[C@@H](Cc5c[nH]c6ccccc56)NC(=O)[C@H](Cc5ccccc5)NC4=O)CC3)c2)c(O)cc1O (some centres unmarked) [UB-181297],–,–,–,–,–,"EC50 [1, 6]: > 1000 nM; EC50 (Human Colon Cancer HT-29; [7]): > 1000 nM; EC50 [2, 8]: > 1000 nM; EC50 [3, 9]: > 1000 nM; EC50 [5, 11]: > 1000 nM"
CC[C@@H]1C(=O)N(C)c2cnc(Nc3ccc(-c4cn([C@H]5CC[C@@H](N(CCOCCC#Cc6cccc7c6CN(C6CCC(=O)NC6=O)C7=O)C(=O)OCCSSC[C@H](NC(=O)[C@H](CC(=O)O)NC(=O)[C@H](CC(=O)O)NC(=O)[C@H](CCCNC(=N)N)NC(=O)[C@H](CC(=O)O)NC(=O)CC[C@H](NC(=O)c6ccc(NCc7cnc8nc(N)[nH]c(=O)c8n7)cc6)C(=O)O)C(=O)O)CC5)nn4)cc3OC)nc2N1C1CCCC1 (some centres unmarked) [UB-181336],> 1000,> 1000,> 1000,> 1000,> 1000,–
CNC(=O)c1ccccc1Nc1nc(Nc2ccc(N3CCN(C(=O)NC4CCC(N(CCC#Cc5ccc6c(c5)CN(C5CCC(=O)NC5=O)C6=O)C(=O)OCc5ccc(NC(=O)[C@H](CC(N)=O)NC(=O)[C@H](C)NC(=O)[C@H](C)NC(=O)CCCCCN6C(=O)CC(SC[C@H](NC(=O)[C@H](CC(=O)O)NC(=O)[C@H](CC(=O)O)NC(=O)[C@H](CCCNC(=N)N)NC(=O)[C@H](CC(=O)O)NC(=O)CCC(NC(=O)c7ccc(NCc8cnc9nc(N)[nH]c(=O)c9n8)cc7)C(=O)O)C(=O)O)C6=O)cc5)CC4)CC3)cc2)ncc1Cl (some centres unmarked) [UB-181298],8.8,> 1000,> 1000,273,4.1,–

# Source: patent publication US20250041306A1, “TARGETED PROTEASE DEGRADATION (TED) PLATFORM” (EUBULUS BIOTHERAPEUTICS INC., priority 2021, published 2025)
